Results published in PubChem BioAssay (NCI).
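Dose response: 5 concentrations. Exposure: 48 h. Format: 96-well plates. Endpoint: linear interpolation; highest concentration if not reached. The concentration for full growth arrest is given as TGI.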

Assays:
Assay in all cases: NCI tumour cell line growth inhibition, 48 h
[1] = test system: 786-0 renal
[2] = test system: ACHN renal
[3] = test system: BT-549 breast
[4] = test system: HCT-116 colon
[5] = test system: HCT-15 colon
[6] = test system: OVCAR-3 ovarian
[7] = test system: SF-268 CNS
[8] = test system: SF-539 CNS
[9] = test system: SR leukemia
[10] = test system: SW-620 colon

SMILES	TGI [1] [µM]	TGI [2] [µM]	TGI [3] [µM]	TGI [4] [µM]	TGI [5] [µM]	TGI [6] [µM]	TGI [7] [µM]	TGI [8] [µM]	TGI [9] [µM]	TGI [10] [µM]
OC(NN=C1CCCC1)(C(F)(F)Cl)C(F)(F)Cl	> 10	> 10	> 10	> 10	> 10	> 10	> 10	> 10	> 10	> 10
O=C1NC(N2CCOCC2)=N/C1=C\c1ccc(O)cc1	> 100	> 100	> 100	> 100	> 100	> 100	> 100	> 100	> 100	> 100
Cc1ccc(S(=O)(=O)NC(=O)C2=C3SCCN3C(=O)N(S(=O)(=O)c3ccc(C)cc3)C2c2ccccc2)cc1 (stereo not given)	> 100	> 100	> 100	> 100	> 100	59.1	> 100	61.6	> 100	> 100
CC(C)=CCC[C@@H](C)C1=C(O)C(Nc2ccccc2I)=C(C)C(=O)C1=O	> 58.7	44	> 75	34.8	> 75	> 47.5	> 69.3	30	21.4	> 75
CC(=O)OC[C@H]1On2nnnc2[C@H](OC(C)=O)[C@@H](OC(C)=O)[C@@H]1OC(C)=O	> 100	> 100	> 100	> 100	> 100	> 100	> 100	> 100	> 100	> 100
Cc1ncc(COP(=O)(O)O)c(/C=C2\SC(=S)NC2=O)c1O	> 100	> 100	> 100	> 100	> 100	> 100	> 100	> 100	> 100	> 100
Clc1ccc(C2=CCN3CC=C(c4ccc(Cl)cc4)C23)cc1	24.1	27	24	19.2	23.5	25.1	24.2	31.1	21.9	26
COC1=CC(=O)N(C)C(O)C1(C#N)OC1OC(CO)C(O)C(O)C1O (stereo not given)	> 100	> 100	> 100	> 100	> 100	> 100	> 100	> 100	> 100	> 100
CCCCCCCCOc1ccc(/C=C/C2=[N+](CCO)CCO2)cc1	13.7	13	14.5	10.2	25	28	20.5	11	4.66	6.8
